Entries after “also recorded” stand apart in the source; their conditions may differ.
Columns and labels:
[1] = test system: Un-transfected HEK293 cells; assay: whole-cell patch clamp, control HEK293 cells (un-transfected or GFP alone); format: cell-based, human
Experimental: (§1) Currents from OR-expressing HEK293 cells were amplified with an Axopatch 200b Amplifier (Axon Instruments) and digitized through a Digidata 1322A (Axon Instruments). Electrophysiological data was recorded and analyzed using pCLAMP 10 (Axon Instruments). Electrodes were fabricated from quartz tubing (Sutter Instruments) and pulled to 4-6 MΩ for whole cell recording. Electrodes were filled with internal solution (120 mM KCl, 30 mM D-glucose, 10 mM HEPES, 2 mM MgCl2, 1.1 mM EGTA, and 0.1 CaCl2 (pH 7.35, 280 mOsm). External (bath) solution contained 130 mM NaCl, 34 mM D-glucose, 10 mM HEPES, 1.5 mM CaCl2, 1.3 mM KH2PO4, and 0.5 MgSO4 (pH 7.35, 300 mOsm). Compounds were diluted in external solution and locally perfused to the recording cell using Perfusion Pencil (Automate Scientific) and controlled by a ValveLink 8.2 controller (Automate Scientific). Whole cell recordings were sampled at 10 kHz and filtered at 5 kHz. Outside-out patches were obtained using 10-15MΩ electrodes pulled from standard glass capillaries (World Precision Instruments) and fire-polished with an MF-830 micro forge (Narishige). Single channel recordings were sampled at 20 kHz. Recordings were reduced to 1 kHz and low-pass filtered at 500 Hz for display and analysis using QuB (SUNY at Buffalo).

AgORco = target: T1, AgORco (Anopheles gambiae, UniProt Q7QCC7); assay: whole-cell patch clamp, HEK293 cells stably expressing AgORco alone; format: cell-based
T1 construct: expressed in transfected cells
T1 sequence (Q7QCC7 1-478): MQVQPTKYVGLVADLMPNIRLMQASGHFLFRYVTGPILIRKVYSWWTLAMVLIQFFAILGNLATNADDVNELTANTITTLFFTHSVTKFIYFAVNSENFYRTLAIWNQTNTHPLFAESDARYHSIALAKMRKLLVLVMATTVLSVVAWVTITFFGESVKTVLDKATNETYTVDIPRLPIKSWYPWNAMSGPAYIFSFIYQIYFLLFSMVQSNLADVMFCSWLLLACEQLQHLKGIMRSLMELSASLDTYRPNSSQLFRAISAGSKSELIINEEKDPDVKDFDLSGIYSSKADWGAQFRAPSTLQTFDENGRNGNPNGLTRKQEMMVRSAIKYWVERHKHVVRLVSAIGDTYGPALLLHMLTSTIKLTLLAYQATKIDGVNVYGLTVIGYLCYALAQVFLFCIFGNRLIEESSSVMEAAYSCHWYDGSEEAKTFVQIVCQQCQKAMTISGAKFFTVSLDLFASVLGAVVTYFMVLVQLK
Experimental: as §1
To test the hypothesis that VUAA1 directly agonized AgORco, whole-cell patch clamp responses were examined in AgORco+AgOR10 expressing cells as well HEK293 cells stably expressing AgORco alone. […] The VUAA1-dependent currents in AgORco+AgOR10 cells resembled those resulting from application of benzaldehyde, an orthosteric agonist of AgOR10 (FIG. 3C) (Wang, 2010; Carey, 2010). AgORco+AgOR10 cells were more sensitive to VUAA1 than AgORco cells, producing inward currents at −5.0 log M, a concentration at which AgORco had no response. […] To investigate the specificity of VUAA1 agonism, the inventors transiently transfected HEK cells with the AgORco orthologs of Drosophila melanogaster and Heliothis virescens, DmOR83b and HvOR2 respectively.

AgORco+AgOR10 = assay: plate-based Fluo-4 Ca2+ imaging in stable HEK293 cell lines; parameters: species or system Anopheles gambiae; settings: AgORco+AgOR10 HEK293 cells; not seen in control cells
Description: (§2) For transient transfections, ORs were cloned into pCI (Promega) and transfected into Flp-In™ T-REx™293 cell lines (Invitrogen) with Fu GENE6 (Roche). For the creation of stable cell lines, a cell culture expression vector capable of expressing AgORco in conjunction with a conventional OR, pcDNA5/FRT/TO (Invitrogen) was modified to create two individual expression cassettes each under the control of a separate CMV/TetO2 promoter and a BGH poly-adenylation signal. Cells (as above) were transfected with the modified pcDNA5 plasmid along with POG44 (a Flp recombinase expression plasmid) to facilitate site-specific recombination. Stable cell lines were selected using Hygromycin B (Invitrogen). Cells were maintained in DMEM (Invitrogen) supplemented with 10% Tetracycline-free FBS (HyClone) and 15 μg/ml Blasticidin. For fluorometric Ca^2+ measurements, stable lines expressing ORs of interest were seeded at 20,000 cells/well in black wall, poly-lysine coated 384-well cell culture plates (Greiner) and treated with 0.3 μg/μl tetracycline (Sigma) overnight to induce OR expression. Cells were dye-loaded with 1.8 μM Fluo-4 AM (Molecular Probes), 2.5 mM Probenecid (Molecular Probes) in assay buffer (20 mM HEPES, 1×HBSS) for 45 minutes at 37° C. in 5% CO2 prior to each assay. […] Baseline readings were taken for 20 s before automated addition of compound previously diluted in DMSO and assay buffer. […]

HvOR2 = assay: whole-cell patch clamp, HEK cells transiently transfected with HvOR2; format: cell-based, Heliothis virescens; settings: HEK cells expressing HvOR2, −60 mV
Description: as §2, with “Blasticidin.” for “Blasticidin. For fluorometric Ca^2+ measurements, stable lines expressing ORs of interest were seeded at 20,000 cells/well in black wall, poly-lysine coated 384-well cell culture plates (Greiner) and treated with 0.3 μg/μl tetracycline (Sigma) overnight to induce OR expression. Cells were dye-loaded with 1.8 μM Fluo-4 AM (Molecular Probes), 2.5 mM Probenecid (Molecular Probes) in assay buffer (20 mM HEPES, 1×HBSS) for 45 minutes at 37° C. in 5% CO2 prior to each assay.”
Currents from OR-expressing HEK293 cells were amplified with an Axopatch 200b Amplifier (Axon Instruments) and digitized through a Digidata 1322A (Axon Instruments). Electrophysiological data was recorded and analyzed using pCLAMP 10 (Axon Instruments). […]

## CCc1ccc(NC(=O)CSc2nnc(-c3cccnc3)n2CC)cc1 [VUAA1]
[1]; HEK cells transfected with GFP alone
  whole-cell currents in GFP alone cells: no currents
[1]; control / un-transfected HEK293 cells
  whole-cell currents in control cells: no responses were observed; also recorded: did not respond
AgORco; AgORco alone cells, clamped at −60 mV
  whole-cell currents: concentration-dependent inward currents
AgORco; AgORco alone cells, −5.0 log M
  whole-cell response at −5.0 log M: no response
AgORco; AgORco alone, mean±s.e.m.
  reversal potential: +0.4±1.1 mV
AgORco+AgOR10
  Ca2+ imaging response: concentration-dependent responses
HvOR2
  whole-cell currents: robust inward currents

Reference: patent US10091997B2, “Composition for inhibition of insect host sensing” (Vanderbilt University, priority 2010, dated 2018)
